Data set [1] concerns patients with CHF. The note with it: cited from earlier work.
Data set [2] relates to β-adrenergic receptor. The note with it: U.S. Pat. No. 6,284,800; cited from earlier work.
In data set [3] the test system is antigen-induced bronchoconstriction. The note with it: acute administration; cited from earlier work.
Data set [4] relates to tracheas from asthmatic mice. Conditions: chronic treatment of asthmatic mice, excised tracheas; cited from earlier work.
Data set [5] concerns asthmatic mice. Description: BALF cell number and type (Example 11). In kind it is in vivo. The note with it: vs nontreated asthmatic mice. The text has this:
The same mice as described in Example 1 underwent bronchoalveolar lavage (BAL) to determine the total number and type of immune system cells in the lung. BAL Fluid (BALF) was irrigated and collected from the lungs of mice as previously described (Evans K L, Bond R A, Corry […]. Frequency dependence of respiratory system mechanics during induced constriction in a murine model of asthma. J Appl Physiol. 2003 January;94(1):245-52). […] The number of neutrophils was increased in nontreated asthmatic mice compared to mice that served as controls for chronic beta-blocker treatments. In comparison to their notable effects on airway responsiveness, the β-AR ligands tested had very little effect on BALF cellularity. […] FIG. 12 has 3 panels of cell number and type of cells from the bronchoalveolar lavage fluid of asthmatic mice treated acutely or chronically with beta adrenergic ligands. Cells were identified as eosinophils (black bars), macrophages (hatched bars), neutrophils (grey bars), and lymphocytes (white bars) by standard morphologic criteria. At least 200 cells were counted per cytospin preparation, and the absolute number of each cell type was calculated based on the volume of fluid recovered from the lavage. […] Data are expressed as mean ±SEM and are representative of 6-25 animals per group. #P<0.05 compared to NTX, *P<0.05 compared to control (ANOVA).

Data set [6] addresses β2-adrenergic receptor (Mus musculus, UniProt P18762). It counts as binding, mice. Conditions: for Bmax: 15 Minutes drug treatment; for Bmax / βmax: lung membranes of asthmatic mice, mean±SEM; for βmax: 28 Days drug treatment; for level of the β2-adrenergic receptor: chronic treatment, asthmatic mice. As to the method: (§1) β2-adrenergic receptor numbers were measured in asthmatic mice as follows. […] Mice were sacrificed and lung membranes were isolated as follows. Frozen lung tissue was homogenized in an ice-cold buffer containing 0.32 M sucrose and 25 mM Tris (pH 7.4) using a polytron (Pro 200, Pro Scientific, Inc.). The homogenate was centrifuged at 1000×g for 10 min at 4° C. The resulting supernatant was centrifuged at 40,000×g for 20 min at 4° C. The pellet was suspended in an ice-cold 25 mM Tris-HCl buffer (pH 7.4) and centrifuged at 40,000×g for 20 min at 4° C. The final pellet was suspended in 200 μL of 25 mM Tris-HCl (pH 7.4); membrane protein concentration was determined by BCA protein assay kit. […] The incubation was done at 37° C. for 2 h and terminated by rapid vacuum filtration through glass fiber filters. The filters were washed three times with 250 μL of cold wash buffer (25 mM Tris-HCl, pH 7.4) and the radioactivity determined in a counter. […] Receptor densities are expressed as femtomoles of sites per milligram of protein. Bmax is determined by nonlinear regression of the saturation binding curves.

Data set [7] concerns β2-adrenergic receptor. In kind it is binding, mice. The note with it: 2 days of administration. On the procedure:
as §1

For data set [8], the system named is asthmatic mice. Put plainly: Airway resistance (Raw) response to methacholine in murine model of asthma (forced oscillation). In kind it is in vivo, Balb/cJ mice. The note with it: for airway hyperresponsiveness (Raw): chronic treatment 7 days, 20 mg/kg (metoprolol 3× daily s.c.; timolol in chow). On the procedure: Balb/cJ mice aged 6 weeks (Jackson Animal Laboratory, Bar Harbor, Me.) were housed under specific pathogen-free conditions and fed a chicken ovalbumin-free diet. The Animal Research Ethics Boards of both the University of Houston and the Baylor College of Medicine approved all experiments reported here. […] Mice were sensitized with subcutaneous injection of 25 μg of ovalbumin adsorbed to aluminum hydroxide on protocol days 2, 9, and 16. Subsequently, mice were given 50 μL of saline solution containing 25 μg of ovalbumin intranasally, on a daily basis, from protocol days 23 through 27. A group of ovalbumin-sensitized saline-challenged mice serves as controls for systemic sensitization and respiratory challenges with ovalbumin. Prior to intranasal administrations, mice were sedated with halothane vapor.
To examine the effects of duration of β-adrenergic ligand therapy on the phenotype of the murine model of asthma, the experimental drugs were administered either acutely or chronically to different groups of asthmatic mice.
Asthmatic mice on acute therapy were given a single intravenous bolus infusion of either β-adrenergic drug or normal saline on protocol day 28, 15 minutes before airway responsiveness to methacholine was determined. […] […] […] These concentrations were chosen based on those producing therapeutic effects in mice in previously published studies. The non-asthmatic mice were fed normal chow.
On protocol day 28, mice were anesthetized, tracheotomized, and connected to a computer-controlled small animal ventilator (Flexivent, Scientific Respiratory Equipment, Inc., Montreal, Canada). Airway resistance (Raw) was measured using the forced oscillation technique. The cellular composition of bronchoalveolar lavage fluid (BALF) was also determined.
To induce airway constriction, a solution containing 150 μg/mL of acetyl-α-methylcholine chloride (methacholine) (Sigma Chemical, St. Louis, Mo.) was infused intravenously at constant rates using a syringe infusion pump (Raze Scientific Instruments, Stanford, Conn.). […] Each methacholine dose was administered for 3 to 5 minutes, during which data were sampled at 1-minute intervals and then averaged.
The complex input impedance of the respiratory system was computed and the value of the real part of respiratory system impedance at 19.75 Hz was taken to reflect the magnitude of airway resistance (Raw). To examine the degree of airway responsiveness of each animal, the values for Raw as a function of methacholine doses were plotted. The largest value for Raw achieved in response to methacholine stimulation was referred to as Rawpeak. For mice that achieved a plateau in the methacholine dose-Raw response curve, the ED50 was calculated by linear interpolation using the GraphPad Prism4 (GraphPad Software, Inc.). […] The Bonferroni test was used to examine the statistical differences between experimental groups. The effects of acute drug treatments on baseline respiratory system mechanics were assessed using a two-tailed paired t-test. A value of P<0.05 was considered significant.
For these experiments, salbutamol was used for chronic administration at 0.5 mg/kg/day with a minipump and for acute administration at 0.15 mg/kg by i.v. bolus 15 minutes prior to challenge. Alprenolol was used at a high dose of 7200 ppm in chow or at a low dose of 720 ppm in chow. Carvedilol was used at a high dose of 2400 ppm in chow or at a low dose of 720 ppm in chow.

For data set [9] the following is noted: cited from earlier work.
Data set [10] has as its system asthmatic mice. Description: Total number of immune cells in BALF (Example 12). The note with it: chronic treatment; compared to NS/NC mice. It counts as in vivo. As to the method: Bronchial alveolar lavage fluid was collected from treated animals and total immune cell number was determined and the total number of eosinophils was also determined. Additionally, the interleukin 10 (IL-10) levels were determined in the mice.

For data set [11] the following is noted: chronic use; cited from earlier work.
[12] abbreviates: asthmatic mice, acute: single intravenous bolus 15 minutes before methacholine.
Where [13] appears, read: asthmatic mice, chronic administration for 28 days.

The source of these data is patent US7528175B2, “Method of treating airway diseases with beta-adrenergic inverse agonists” (Inverseon, Inc., priority 2005, dated 2009).

“Also recorded” adds a separate entry of the source. Like-named read-outs stand apart in the source and are kept apart here.

β2-adrenergic receptor (Mus musculus, UniProt P18762), sequence (P18762 whole entry): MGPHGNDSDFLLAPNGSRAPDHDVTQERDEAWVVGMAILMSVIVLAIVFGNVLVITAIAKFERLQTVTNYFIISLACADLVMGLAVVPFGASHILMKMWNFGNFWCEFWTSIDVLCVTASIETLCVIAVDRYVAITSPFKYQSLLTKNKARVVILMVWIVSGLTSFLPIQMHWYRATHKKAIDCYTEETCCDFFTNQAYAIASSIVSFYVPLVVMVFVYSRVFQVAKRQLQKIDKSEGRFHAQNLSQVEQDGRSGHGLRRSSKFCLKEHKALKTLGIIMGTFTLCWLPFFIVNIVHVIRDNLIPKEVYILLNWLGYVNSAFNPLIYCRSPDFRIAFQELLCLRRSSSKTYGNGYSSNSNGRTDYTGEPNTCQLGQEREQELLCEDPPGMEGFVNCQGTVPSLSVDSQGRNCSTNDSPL

Consider `CC(C)(Cc1c[nH]c2ccccc12)NCC(O)COc1ccccc1C#N` (stereo not shown) [Bucindolol, bucindolol], for which the “clinical outcome in congestive heart failure” value in [1] is recorded as “failed to demonstrate any benefit over placebo”.

As to `CC(C)NC[C@@H](O)COc1cccc2ccccc12` [D-propranolol], the “activity with respect to β-adrenergic receptors” value in data set [2] was “inactive”. Besides, the “antigen-induced bronchoconstriction and airway hyperresponsiveness” value in data set [3] is “beneficial in inhibiting antigen-induced bronchoconstriction and reducing airway hyperresponsiveness”.

Regarding `Cc1ccc(OCC(O)C(C)NC(C)C)c2c1CCC2` (stereo not shown) [ICI-118,551], the “effectiveness on tracheal contraction in response to methacholine (rank)” value in [4] was “then ICI-118,551”.

Regarding `CC(C)NC[C@H](O)COc1cccc2ccccc12` [L-form of propranolol, propranolol], the specific lung resistance result in data set [3] is “increased specific lung resistance”.

On to `C=CCc1ccccc1OCC(O)CNC(C)C` (stereo not shown) [alprenolol], for which the BALF cellularity entry in data set [5] (acute treatment (15 minutes)) was “significant increase in the number of macrophages”; in data set [5] (chronic treatment (28 days)), “no changes in BALF cellularity were observed”. Also, in data set [6], the Bmax is given as 299.5 ± 12.19 femtomoles of sites per milligram of protein. The βmax in [6] is 179.2 ± 53.05 femtomoles of sites per milligram of protein. Also, the results for the “Increased β2AR density” value in data set [6] (15 minutes of administration), in [6] (28 days of administration) and in data set [7] were “yes”, “no” and “no”, respectively. Besides, the “level of the β2-adrenergic receptor” value in data set [6] is given as “slight decrease”. Moreover, the “Decreased Raw” value in data set [8] (15 minutes of administration) is “yes”; in data set [8] (2 days of administration) it was “no”; in [8] (28 days of administration), “no”. Besides, the “airway responsiveness to methacholine provocation (Raw)” value in data set [8] (setting [12]) is “airway responsiveness was diminished”; in data set [8] (setting [13]) it was “does not reduce airway hyperresponsiveness; also recorded: without any activity; also recorded: provides no benefit upon chronic administration”. For the same compound, in data set [8] (asthmatic mice, single intravenous bolus), the “methacholine doses at which Raw was significantly decreased vs non-treated (P<0.05)” value is at least 408 µg/kg/min. Moreover, the “effectiveness on tracheal contraction in response to methacholine (rank)” value in data set [4] was “The most effective compound”.

For the compound `CCCC1O[C@@H]2C[C@H]3[C@@H]4CCC5=CC(=O)C=C[C@]5(C)[C@H]4[C@@H](O)C[C@]3(C)[C@]2(C(=O)CO)O1` (stereo partly shown) [budesonide], in [9] (in vivo), the “plasma clearance relative to average clearance of prednisolone” value is listed as “about 10 fold” and the “systemic availability of the swallowed fraction” value is reported as 10.7±4.3%. In [9] (per kilogram of bodyweight, 6 children, 11 adults), the “plasma clearance of the 2 enantiomers, children with asthma vs healthy adults” value is listed as “about 50%”.

As for `C[C@@H]1C[C@H]2[C@@H]3C[C@H](F)C4=CC(=O)C=C[C@]4(C)[C@@]3(F)[C@@H](O)C[C@]2(C)[C@@]1(O)C(=O)SCF` [fluticasone], the “first-pass hepatic metabolism of systemically absorbed drug” value in [9] (in vivo) is on record as “almost complete”.

Turning to `COCCc1ccc(OCC(O)CNC(C)C)cc1` (stereo not shown) [metoprolol], the “clinical outcome in congestive heart failure” value in [1] is “significant mortality reduction”. In [8], the “airway hyperresponsiveness (Raw)” value is recorded as “effective in reducing airway hyperresponsiveness”.

`CC(C)(C)NCC(O)c1ccc(O)c(CO)c1` (stereo not shown) [salbutamol]: the “bioavailability of inhaled drug” value in data set [9] (10 patients with cystic fibrosis vs healthy adults) was “greater than that in healthy adults”. The BALF cellularity result is recorded as “did not alter the cellular composition of BALF” in [5] (acute treatment (15 minutes)) and “significant increase in the number of eosinophils” in [5] (chronic treatment (28 days)). In [6], the Bmax was 256.5 ± 29.24 femtomoles of sites per milligram of protein. Besides, the βmax in [6] is 97.0 ± 23.02 femtomoles of sites per milligram of protein. Also, the “Increased β2AR density” value in data set [6] (15 minutes of administration) is “yes”; in data set [6] (28 days of administration), “no”; in [7] it was “no”. The “level of the β2-adrenergic receptor” value in data set [6] was “slight decrease”. For the same compound, in data set [10], the “total number of immune cells in BALF” value is reported as “statistically significant at P<0.05 total higher numbers of immune cells”. Further, the “Decreased Raw” value in [8] (15 minutes of administration) is reported as “yes”; in data set [8] (2 days of administration) it was “no”; in data set [8] (28 days of administration), “no”. The “airway responsiveness to methacholine provocation (Raw)” value in data set [8] (setting [12]) was “reduced the level of airway responsiveness to methacholine provocation and the level of airway resistance”; in [8] (setting [13]) it was “no protection was observed”.

As to `OCc1cc(C(O)CNCCCCCCOCCCCc2ccccc2)ccc1O` (stereo not shown) [salmeterol], in [9] (in vivo), the “time for majority of a dose to be eliminated in the feces” value is at most 72 h. Further, the trial outcome in data set [11] is listed as “stopped due to increased death rates”.

As to `CC(C)(C)NCC(O)c1cc(O)cc(O)c1` (stereo not shown) [terbutaline], in data set [9] (from an MDI), the “increase in bioavailability from oral component” value is listed as 6.7%. In data set [9] (healthy smokers vs healthy nonsmokers), the “absorption through the lung” value is “absorbed through the lung more rapidly in healthy smokers than in healthy nonsmokers”.

In the case of `CC(C)(C)NC[C@H](O)COc1nsnc1N1CCOCC1` [timolol], the “airway hyperresponsiveness (Raw)” value in [8] is reported as “effective in reducing airway hyperresponsiveness”.
